Source: paper PMC4322365, “A Ligand-observed Mass Spectrometry Approach Integrated into the Fragment Based Lead Discovery Pipeline” (Scientific Reports, 2015)
“And” between values parts separate entries of the source, which are not always exact repeats. Equal values may be shown once.

Assays:
NS5B = target: T1, NS5B (Hepatitis C virus genotype 1b, UniProt P26663); test: SPR analysis (Biacore T200, immobilized NS5B); type: binding; conditions: for SPR Corr. response (RU): corrected response above 5 RU indicates positive binding; for SPR binding: threshold 5 RU
T1 construct: NS5B with a C-terminal 10-His tag was expressed in E. coli; 10-His (C); made in house; host or cells: E. coli
Protocol: In order to determine the dissociation constant of each fragment ligand, we prepared calibration curves for the MS responses of ten fragments in a mixture (Figure S1) and measured the recovery rate of each fragment (Table S3), which were used to derive the actual concentrations of fragments bound to the target. Kd values were then calculated based on the measured concentrations of fragment ligands dissociated from the target (Table S3). […] Ligand efficiency (LE) values were then derived from Kd's as a measure to justify which fragments to further optimize and elaborate in the FBLD pipeline[46][47] (Figure 2A). To examine the accuracy of Kd measurement using this new approach, we first attempted to utilize ITC for binding affinity assessment. […] SPR was then implemented for Kd determination for these fragment hits. […] However, using the single point measurement method, we were still able to estimate Kd's for these fragment-target interactions to be all within the millimolar range and rank the order of their binding affinity according to corrected responses (Figure 2B). […] The overall consistency of affinity ranking and estimation between the two independent assays implied our new approach enabled reliable assessment of binding affinity, especially valuable for characterizing low-affinity fragments not amenable to conventional biophysical approaches.
The SPR experiment was performed on a Biacore T200 optical biosensor (Biacore Life Sciences, GE Healthcare). Series S sensor chips CM5, NHS, EDC, ethanolamine HCl as well as sampling vials and caps were all obtained from Biacore. A solution of 1 × PBS with 5% DMSO was used as running buffer. NS5B protein at 50 μg/ml prepared in buffer of 10 mM sodium acetate (pH 5.5) was injected for immobilization which reached a level of 8000 RU. During each binding cycle, the fragment solution was injected for 1 min at a flow rate of 30 μL/min and dissociation was monitored for 300 s. Data were collected with the biosensor instrument thermo stated to 25°C. Raw data collected on an SPR biosensor were further processed to remove systematic artifacts stemming from nonspecific binding, signal drift, and bulk refractive index changes. Solvent correction and molecular weight adjustment were also applied in this study. All data processing and analysis was performed using the Biacore T200 Evaluation Software.

HCV RNA polymerase NS5B = target: T2, HCV RNA polymerase NS5B (Hepatitis C virus genotype 1b, UniProt P26663); test: Ligand-observed MS secondary screen of 7 subdivided fragment cocktails; type: binding; conditions: 7 cocktails of 50 or 84 fragments; two replicates separated by a slash; S/N > 10 positive; ND: not detected by MS analysis
T2 construct: NS5B with a C-terminal 10-His tag was expressed in E. coli; 10-His (C); made in house; host or cells: E. coli
Protocol: To reduce possible false-positives from the primary screen, the library was divided to 7 cocktails among which six consist of 50 fragments and the last one of 84 fragments. Individual cocktails were incubated with NS5B protein prior to protein complex isolation and ligand-observed MS analysis, resulting in a total of 12 positive hits after screening the seven cocktails (Figure 1C). […] Thus the confidence in hit identification was enhanced by selecting hits repetitively found from the two screens against cocktails of different diversity. It is noteworthy that the preliminary hits missed in the secondary screen might be due to either nonspecific binding or co-operative binding that only occurred when the entire library was incubated with the target. Apart from the 12 hits, 25 fragments with S/N < 10 from the secondary screen were regarded non-binders and discarded.
In the primary screening, a mixture of 384 fragments (each at a final concentration of 25 μM) and NS5B at 50 μM was prepared in the binding buffer of 20 mM MES (pH 6.5), 300 mM NaCl and 10% glycerol, and incubated for 40 min at 25°C. All fragments of the library were either purchased from Sigma or synthesized in our laboratory, and their structural diversity was summarized in Figure S4. The mixture was then filtered through an ultrafiltration membrane (50 KD MW cut-off) by centrifugation at 13000 g for 10 min at […]. The protein complexes bound with different fragments were washed twice with 10 mM ammonium acetate (pH 6.5) followed by centrifugation to remove the unbound fragments. The resulting solution of the complexes was transferred to a new centrifugal tube, and the ligands were dissociated from NS5B with 90% methanol in deionized water. The released ligands were then separated from the denatured protein by centrifugation at 13000 g for 10 min at 20°C. The supernatant containing the ligands was evaporated by a speed vacuum, reconstituted in 80% methanol, and analyzed by LC/MS. The protein-free control was prepared by using the binding buffer substitute for NS5B during incubation and it underwent the same process as the NS5B incubated sample. In the secondary screen, 384 fragments were divided into 7 cocktails, each consisting of 50 fragments except for the seventh cocktail of 84 fragments. Each cocktail was then incubated with NS5B in the binding buffer at the same final concentration as in the primary screen. […] Ultrafiltration and complex dissociation were performed as described earlier to obtain fragment ligands. Samples were all prepared in duplicate and analyzed separately.
Aliquots of reconstituted ultrafiltrates were analyzed on a Waters Synapt G1 high-dfinition mass spectrometer (Milford, MA) equipped with a Waters Acquity UPLC system. UPLC separation was carried out on a Waters Acquity BEH C18 column (2.1 mm × 50 mm, 1.7 μm) at a flow rate of 200 μL/min, with the mobile phases of water/0.1% formic acid (A) and acetonitrile/0.1% formic acid (B). In the primary screen, the LC gradient was as follows: 0–15 min, 2–50% B; 15–17 min, 50%–90% B; 17–20 min, 90% B. In the secondary screen and the validation assay, the first fraction of gradient (2–50% B) was shortened to 6 min. The regular ESI ion source operated in both positive- and negative-ion modes. Mass spectra were acquired within a mass range from 100 to 800 m/z, with capillary voltage 3.0 kV in the positive mode and 2.6 kV in the negative mode, sample cone voltage 54 V (positive mode) and 45 V (negative mode), extraction cone voltage 4.7 V (positive mode) and 4.0 V (negative mode), desolvation temperature 350°C, source temperature 100°C, and desolvation gas flow 500 L/h. External calibration with a solution of sodium formate achieved mass accuracy within 10 ppm. LC/MS chromatogram extraction and peak area calculation for specific fragments were performed by use of MassLynx software (v4.1, Waters) based on accurate mass measurement of the compound with a tolerance of 0.01 Da. […]

T2 sequence (P26663 2420-3010): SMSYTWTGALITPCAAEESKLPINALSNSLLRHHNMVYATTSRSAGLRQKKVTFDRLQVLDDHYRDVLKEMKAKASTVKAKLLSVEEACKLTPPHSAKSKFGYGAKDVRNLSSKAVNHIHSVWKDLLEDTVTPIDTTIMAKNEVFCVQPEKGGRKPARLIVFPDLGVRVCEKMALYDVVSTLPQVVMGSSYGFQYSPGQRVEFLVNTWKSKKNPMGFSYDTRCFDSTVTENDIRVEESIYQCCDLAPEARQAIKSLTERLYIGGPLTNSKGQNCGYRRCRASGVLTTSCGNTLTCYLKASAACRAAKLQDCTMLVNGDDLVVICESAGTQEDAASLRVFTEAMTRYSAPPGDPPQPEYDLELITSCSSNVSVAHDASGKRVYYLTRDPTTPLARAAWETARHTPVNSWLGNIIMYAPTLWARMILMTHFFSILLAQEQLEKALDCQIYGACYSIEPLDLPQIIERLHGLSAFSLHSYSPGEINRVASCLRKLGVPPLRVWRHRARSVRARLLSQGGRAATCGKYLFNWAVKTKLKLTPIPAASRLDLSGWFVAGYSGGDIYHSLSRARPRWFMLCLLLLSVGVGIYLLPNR
T1 sequence (P26663 2420-3010): as above

| SMILES | SPR Corr. response (RU) (NS5B) | S/N in the 2nd screen (HCV RNA polymerase NS5B) | SPR binding (NS5B) |
| --- | --- | --- | --- |
| Nc1ccc(C(F)(F)F)cn1 [Fragment 162] | 7.6 RU | 19.7 and 17.3 |  |
| Cc1ccc2oc(=O)ccc2c1 [Fragment 117] | 24.6 RU | 34.3 and 39.6 |  |
| Cn1c(=O)cc(O)c2ccccc21 [Fragment 130] | 18.4 RU | 48.4 and 49.4 |  |
| Cc1nc2ccccc2nc1C [Fragment 339] | 12.2 RU | 66.2 and 62.4 |  |
| Oc1ccc(F)c(Cl)c1 [Fragment 85] | 30.9 RU | 79.0 and 86.0 |  |
| N#CCc1ccc(O)cc1 [Fragment 114] | 55.6 RU | 103.0 and 91.0 |  |
| O=C(O)c1ccc(C(F)(F)F)cc1 [Fragment 204] | < 5 RU and 3.2 RU | 22.4 and 19.8 | no binding |
| N#CC(c1ccccc1)N1CCOCC1 (stereo not drawn) [Fragment 328] |  | 17.4 and 16.3 | no binding |
| Cc1cc(N)n(-c2ccccc2)n1 [Fragment 131] | 14.7 RU | 23.1 and 19.4 |  |
| Oc1ccc(SC(F)(F)F)cc1 [Fragment 237] | 10.0 RU | 29.0 and 36.0 |  |
